The text below walks through data of paper PMC11770985 (Journal of proteome research, 2024).

Ends that are not written are not given here.

For data set [1], the system named is HUVEC cells.
Data set [2] relates to Kasumi-1 cells.
For data set [3], the system named is HEK293T cells.
Data set [4] has as its system Huh-7 cells.

For the substance “KLALKLALKALKAALKLAGAYGRKKRRQRRRAFSVDAETLWR-NH2 [KLAL-TAT-[barcode82]]”, the results for the mean cytoplasmic abundance in data set [1], in data set [2] and in data set [3] were 0 millions of molecules/cell, 15 millions of molecules/cell and 31 millions of molecules/cell, respectively.
For the substance “RLALRLALRALRAALRLAGCYGRKKRRQRRR [RLAL-TAT-[barcode108]]”, in data set [4], the “change of nuclear accumulation after 24 hours of cell exposure” value was “time-dependent increase in nuclear accumulation” and the mean nuclear abundance was 196 millions of molecules/cell.
